Source: US9943599B2, “Therapeutic applications of calcium electroporation to effectively induce tumor necrosis” (Herlev Hospital, priority 2011, dated 2018)

Legend:
[1] = system: basocellular carcinoma; test: Case study, calcium electroporation in a human patient; assay type: in vivo
Description: In a patient with multiple basocellular carcinomas, where all known treatment options had been tried and the patient was still in need of treatment, calcium electroporation was tried.
In this patient, lesions that were verified by biopsy to contain basocellular carcinoma were treated with different doses of calcium chloride or calcium glubionate with electroporation. Three lesions were treated, measuring 0.8 to 2 cm, by 0.1-0.2 mm deep.
After local anaesthesia (Mir et al), calcium was injected intratumorally using a thin needle and 1 ml syringe. Volumes of resp. 0.1, 0.7 and 3.7 times the calculated tumor volume (in this case calculated as diameter times perpendicular diameter times depth due to the shape of the tumors) was injected.
Immediately after injection (within 45 seconds), electroporation was performed using a square wave pulse generator (CLINIPORATOR®, IGEA, Modena, Italy) and needle electrodes with parallel arrays 0.4 cm apart. Eight pulses of a duration of 0.1 ms and 1 kV/cm (voltage to electrode distance ratio) were administered immediately after calcium injection.

[2] = system: HT29 (human colon cancer) tumors; test: Fraction of necrosis after calcium electroporation, HT29 tumors; assay type: in vivo, NMRI-Foxn1^nu mice
Description: LPB, a murine sarcoma cell line, B16, a murine malignant melanoma cell line, MDA-MB231, human a breast cancer cell line, HT29, a human colon cancer cell line, and SW780, a human bladder cancer cell line were used for the in vivo experiment. The cells were tested by rapid MAP27 panel (Taconic, Hudson N.Y.) before use without signs of infection. 2×10^5 cells (B16), 8×10^5 cells (LPB), 2.5×10^6 cells (MDA-MB231), and 5×10^6 cells (HT29 and SW780) in 100 μl PBS were injected subcutaneously in the flank of NMRI-Foxn1^nu mice (Harlan, Indianapolis, Ind.) that were 9-11 weeks old. Mice were randomised at a tumor volume above 85 mm^3 and tumors were treated with injection of isotonic calcium-chloride solution (168 mM CaCI2) and electroporation (8 pulses of 1.0 kv/cm for 100 μs and a frequency of 1 Hz) using a 6 mm plate electrode and a square wave electroporator (CLINIPORATOR®, IGEA, Modena, Italy). Tumor volume was calculated as ab^2n/6, where a is the largest diameter and b is the largest diameter perpendicular to a. The injected volume was half of the tumor volume. […] The fraction of necrosis within the tumor was estimated from HE-sections by stereological point counting using a light microscope, evaluated by a pathologist, blinded with respect to treatment status.
The difference in fraction of necrosis at different time after treatment was assessed using student's t-test.

[3] = system: MDA-MB231 (human breast cancer) tumors; test: Fraction of tumor necrosis at different calcium concentrations and injection volumes; assay type: in vivo, NMRI-Foxn1nu mice; settings: electroporation, 7 days
Description: MDA-MB231, a human breast cancer cell line was used for the in vivo experiments. The cells were tested by rapid MAP27 panel (Taconic, Hudson N.Y.) before use without signs of infection. Cells were maintained in vitro as described in Example 1. 2.5×10^6 cells/100 μl PBS were injected subcutaneously in the flank of NMRI-Foxn1nu mice (Harlan, Indianapolis, Ind.). Tumor pieces are transplanted twice from donor mice to the flank of nude mice that were 13-19 weeks old. HYPNORM™-DORMICUM™ (fentanyl/fluanisone/midazolam; VetaPharma, Leeds, U K and Roche, Basel, Switzerland) was used for anesthesia complemented with RIMADYL® (Carprofen) (Pfizer ApS, Ballerup, Denmark) as well as lidocaine (Region Hovedstadens Apotek, Herlev, Denmark) in the incision. Mice were randomised at a tumor volume above 85 mm3 and tumors were treated with 1) injection of calcium-chloride solution and electroporation (8 pulses of 1.0 kV/cm for 100 μs and a frequency of 1 Hz) using a 6 mm plate electrode and a square wave electroporator (CLINIPORATOR®, IGEA, Modena, Italy), 2) calcium-free physiological saline injection and electroporation (same parameters as above), 3) injection of calcium-chloride, 4) calcium-free physiological saline injection, or 5) untreated but with needle inserted in the tumor without injection and with electrodes put on the tumor without pulses applied. […] Tumor volume was calculated as ab2n/6, where a is the largest diameter and b is the largest diameter perpendicular to a. The solutions were injected through the side of the firm tumor and the needle was moved around inside the tumor to secure injection all over the tumor. Tumors were removed 7 days after treatment, fixated in formalin (10% neutrally buffered) and paraffin embedded. Subsequently, tissue sections with a thickness of 3 μm were HE-stained according to the routine procedure of the department. The fraction of necrosis within the tumor was estimated from HE-sections using a light microscope, evaluated by a pathologist, blinded with respect to treatment status.

[Ca+2].[Cl-].[Cl-] [calcium chloride]
normal skin reaction (clinical observation) ([1]; highest volume (3.7 times tumor volume), with electroporation): necrosis of normal skin
tumor response (biopsy) ([1]; injected volume 0.1 of tumor volume, with electroporation): did not lead to changes
tumor response (biopsy) ([1]; injected volume 0.7 of tumor volume, electroporation 8 pulses 0.1 ms 1 kV/cm): efficient tumor cell kill
fraction of necrosis in tumors, course ([2]; 168 mM CaCl2, half tumor volume, electroporation, first days after treatment): progressive necrosis
tumor re-growth ([2]; 6 days after the treatment): re-growth
fraction of necrosis in tumors ([3]; 100 mM to 500 mM calcium, constant injection volume 50% of tumor volume): higher than the fraction of necrosis in untreated tumors
injection volume with highest fraction of necrosis ([3]; 168 mM calcium): 40 % of the tumor volume
fraction of necrosis in tumors ([3]; injection volumes 20% to 80% of tumor volume, constant 168 mM calcium): higher than the fraction of necrosis in untreated tumors
